# Measurements reported in PubChem BioAssay AID2060491 (Molecular Pharmacology Branch, DTP, NCI, 2025).
# pIC50: −log10 of the molar value.
# System: 857933-349-R-J2-PDC complex spheroids, viability
# Test: Anticancer human tumor 857933-349-R-J2-PDC patient-derived colon adenocarcinoma cell line growth inhibition [GQUAD]
# Conditions: for pIC50: curve of first compound; for viability, T/C: stronger effect = lower value
# Method in brief: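 Multi-cell-type spheroids of tumor cells with HUVEC and mesenchymal stem cells, treated with drug combinations. Concentrations descend in half-log steps from near clinical Cmax, or from 10 microM where Cmax is unknown; viability read-out.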
# [1] = second compound 0.0316 µM, first compound 0.0316 µM
# [2] = second compound 0.0316 µM, first compound 0.1 µM
# [3] = second compound 0.0316 µM, first compound 0.316 µM
# [4] = second compound 0.0316 µM, first compound 1 µM
# [5] = second compound 0.0316 µM, first compound 3.16 µM
# [6] = second compound 0.0316 µM, first compound 10 µM
# [7] = second compound 0.1 µM, first compound 0.0316 µM
# [8] = second compound 0.1 µM, first compound 0.1 µM
# [9] = second compound 0.1 µM, first compound 0.316 µM
# [10] = second compound 0.1 µM, first compound 1 µM
# [11] = second compound 0.1 µM, first compound 3.16 µM
# [12] = second compound 0.1 µM, first compound 10 µM
# [13] = second compound 0.316 µM, first compound 0.0316 µM
# [14] = second compound 0.316 µM, first compound 0.1 µM
# [15] = second compound 0.316 µM, first compound 0.316 µM
# [16] = second compound 0.316 µM, first compound 1 µM
# [17] = second compound 0.316 µM, first compound 3.16 µM
# [18] = second compound 0.316 µM, first compound 10 µM
# [19] = second compound 1 µM, first compound 0.0316 µM
# [20] = second compound 1 µM, first compound 0.1 µM
# [21] = second compound 1 µM, first compound 0.316 µM
# [22] = second compound 1 µM, first compound 1 µM
# [23] = second compound 1 µM, first compound 3.16 µM
# [24] = second compound 1 µM, first compound 10 µM
# [25] = second compound 3.16 µM, first compound 0.0316 µM
# [26] = second compound 3.16 µM, first compound 0.1 µM
# [27] = second compound 3.16 µM, first compound 0.316 µM
# [28] = second compound 3.16 µM, first compound 1 µM
# [29] = second compound 3.16 µM, first compound 3.16 µM
# [30] = second compound 3.16 µM, first compound 10 µM
# [31] = second compound 10 µM, first compound 0.0316 µM
# [32] = second compound 10 µM, first compound 0.1 µM
# [33] = second compound 10 µM, first compound 0.316 µM
# [34] = second compound 10 µM, first compound 1 µM
# [35] = second compound 10 µM, first compound 3.16 µM
# [36] = second compound 10 µM, first compound 10 µM
# 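Note: spheroids exposed to compounds for one week before readout.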
# 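Throughout, for viability, T/C: percent viability relative to vehicle DMSO wells taken as 100%.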
compound,measurement,setting,value
COc1ccc([C@@H](O)c2cc(-c3ncnc4cc(N5CCOCC5)ccc34)c(F)cc2Cl)nn1 + CN(C)c1ccc(Nc2c3ccc(NC(=O)CCN4CCCC4)cc3nc3cc(NC(=O)CCN4CCCC4)ccc23)cc1,pIC50,second compound 0.0316 µM,< 5.00
same,pIC50,second compound 0.1 µM,< 5.00
same,pIC50,second compound 0.316 µM,< 5.00
same,pIC50,second compound 1 µM,< 5.00
same,pIC50,second compound 3.16 µM,< 5.00
same,pIC50,second compound 10 µM,< 5.00
same,"viability, T/C",[1],110%
same,"viability, T/C",[2],99.5%
same,"viability, T/C",[3],101%
same,"viability, T/C",[4],93.3%
same,"viability, T/C",[5],82.5%
same,"viability, T/C",[6],61%
same,"viability, T/C",[7],106%
same,"viability, T/C",[8],101%
same,"viability, T/C",[9],103%
same,"viability, T/C",[10],94.2%
same,"viability, T/C",[11],80.9%
same,"viability, T/C",[12],60.1%
same,"viability, T/C",[13],102%
same,"viability, T/C",[14],101%
same,"viability, T/C",[15],99.1%
same,"viability, T/C",[16],85.8%
same,"viability, T/C",[17],83.6%
same,"viability, T/C",[18],58.2%
same,"viability, T/C",[19],98.8%
same,"viability, T/C",[20],91.2%
same,"viability, T/C",[21],99.3%
same,"viability, T/C",[22],85.4%
same,"viability, T/C",[23],79%
same,"viability, T/C",[24],62.4%
same,"viability, T/C",[25],85.2%
same,"viability, T/C",[26],85.9%
same,"viability, T/C",[27],91.5%
same,"viability, T/C",[28],77.8%
same,"viability, T/C",[29],69.5%
same,"viability, T/C",[30],57.1%
same,"viability, T/C",[31],73.5%
same,"viability, T/C",[32],77.9%
same,"viability, T/C",[33],70.4%
same,"viability, T/C",[34],72.5%
same,"viability, T/C",[35],63.4%
same,"viability, T/C",[36],54.8%
CC(C)(O)C1CCC(Nc2ccc3ncc(-c4cccc(C(F)(F)F)c4)n3n2)CC1 (stereo unspecified) + Cc1[nH]c2ccc(F)cc2c1-c1nc2c3cccnc3c3ncccc3c2[nH]1,pIC50,second compound 0.0316 µM,6.12
same,pIC50,second compound 0.1 µM,6.14
same,pIC50,second compound 0.316 µM,6.17
same,pIC50,second compound 1 µM,6.17
same,pIC50,second compound 3.16 µM,6.18
same,pIC50,second compound 10 µM,6.15
same,"viability, T/C",[1],107%
same,"viability, T/C",[2],95.8%
same,"viability, T/C",[3],96.4%
same,"viability, T/C",[4],35.7%
same,"viability, T/C",[5],2.35%
same,"viability, T/C",[6],2.26%
same,"viability, T/C",[7],104%
same,"viability, T/C",[8],97.8%
same,"viability, T/C",[9],93%
same,"viability, T/C",[10],33.5%
same,"viability, T/C",[11],2.03%
same,"viability, T/C",[12],1.93%
same,"viability, T/C",[13],104%
same,"viability, T/C",[14],92%
same,"viability, T/C",[15],87.3%
same,"viability, T/C",[16],30.8%
same,"viability, T/C",[17],2.68%
same,"viability, T/C",[18],2.19%
same,"viability, T/C",[19],93.4%
same,"viability, T/C",[20],87.3%
same,"viability, T/C",[21],87.5%
same,"viability, T/C",[22],31.4%
same,"viability, T/C",[23],2.43%
same,"viability, T/C",[24],1.82%
same,"viability, T/C",[25],87.3%
same,"viability, T/C",[26],85.1%
same,"viability, T/C",[27],79.5%
same,"viability, T/C",[28],33.1%
same,"viability, T/C",[29],3.45%
same,"viability, T/C",[30],2.02%
same,"viability, T/C",[31],86.6%
same,"viability, T/C",[32],84.6%
same,"viability, T/C",[33],81.7%
same,"viability, T/C",[34],36.4%
same,"viability, T/C",[35],3.99%
same,"viability, T/C",[36],2.51%
CC1COCCN1c1cc(C2(O)CC3CCC(C2)O3)c2cnn(-c3ccn[nH]3)c2n1 (stereo unspecified) + Cc1[nH]c2ccc(F)cc2c1-c1nc2c3cccnc3c3ncccc3c2[nH]1,pIC50,second compound 0.0316 µM,6.54
same,pIC50,second compound 0.1 µM,6.56
same,pIC50,second compound 0.316 µM,6.36
same,pIC50,second compound 1 µM,6.51
same,pIC50,second compound 3.16 µM,6.16
same,pIC50,second compound 10 µM,6.57
same,"viability, T/C",[1],76.9%
same,"viability, T/C",[2],64.5%
same,"viability, T/C",[3],49.6%
same,"viability, T/C",[4],41.2%
same,"viability, T/C",[5],47.2%
same,"viability, T/C",[6],42.5%
same,"viability, T/C",[7],69.5%
same,"viability, T/C",[8],61.1%
same,"viability, T/C",[9],44.6%
same,"viability, T/C",[10],47.3%
same,"viability, T/C",[11],50.3%
same,"viability, T/C",[12],51.4%
same,"viability, T/C",[13],67.8%
same,"viability, T/C",[14],65.5%
same,"viability, T/C",[15],52.7%
same,"viability, T/C",[16],42.3%
same,"viability, T/C",[17],45.8%
same,"viability, T/C",[18],42.9%
same,"viability, T/C",[19],58.2%
same,"viability, T/C",[20],59.8%
same,"viability, T/C",[21],46.5%
same,"viability, T/C",[22],44.6%
same,"viability, T/C",[23],46.4%
same,"viability, T/C",[24],47.2%
same,"viability, T/C",[25],64.9%
same,"viability, T/C",[26],59.6%
same,"viability, T/C",[27],52.4%
same,"viability, T/C",[28],46.2%
same,"viability, T/C",[29],48.4%
same,"viability, T/C",[30],45.5%
same,"viability, T/C",[31],77.4%
same,"viability, T/C",[32],61.2%
same,"viability, T/C",[33],49%
same,"viability, T/C",[34],42.4%
same,"viability, T/C",[35],42%
same,"viability, T/C",[36],46.7%
